Patent US4656247A, “Effective hormonal peptides: D-3-QA1 6-LHRH” (Board of Regents, The University of Texas System, priority 1985, dated 1987)

Key:
[1] = system: 21 day old female rats; assay: In vivo assay in rats for release of LH and FSH; set-up: species or system rat; settings: for Serum LH ng/ml ± SEM / Serum FFSH ng/ml ± SEM: Table VI, sampling time not given; for LH ± SEM ng/ml serum / FSH ± SEM ng/ml serum: Table XI, mean 5-6; for LH ng/ml Serum ± SEM: Table VII
Procedure: In vivo rat assay performed by a modification of the method of Bowers, C. Y. et al. Endocrinology, 106, 674 (1980). 21 day old female rats were injected sc with saline or peptide. Blood samples for the RIAs of LH and FSH were collected at +15, +60, +120, or +180 minutes. (Table VI-XI).

[2] = Peptides tested biologically (summary statement); settings: when tested biologically
[3] = system: pituitary cells from 21 day old rats; assay: In vitro pituitary incubate assay (release of LH and FSH); type: cell-based, rat
Procedure: The data in Tables IV and V are from the in vitro assay of the peptides with the pituitary incubate. This assay measures the release of LH and FSH in an in vitro system with pituitary cells from 21 day old rats. See, Bowers, C. Y. et al. on the inhibitory effects of leutinizing hormone releasing hormone analogs. Endocrinology, 106: 674 (1980).

[4] = system: men; settings: chronic administration; cited from earlier work
[5] = system: advanced prostatic carcinoma; settings: subcutaneous, daily; cited from earlier work
[6] = 150 ng sc, first column (+ 2 hrs as in upper part)
[7] = 150 ng sc, second column (+3 hrs as in upper part)

| Compound | LH ± SEM ng/ml serum ([1]; 150 ng sc, + 2 hrs) | LH ± SEM ng/ml serum ([1]; 150 ng sc, +3 hrs) [ng/ml serum] | FSH ± SEM ng/ml serum [1, 6] [ng/ml serum] | FSH ± SEM ng/ml serum [1, 7] [ng/ml serum] | LH ng/ml Serum ± SEM ([1]; ± 15 min) [ng/mL] | LH ng/ml Serum ± SEM ([1]; ± 60 min) [ng/mL] | other results |
| --- | --- | --- | --- | --- | --- | --- | --- |
| CC(C)C[C@H](NC(=O)[C@@H](Cc1cccnc1)NC(=O)[C@H](Cc1ccc(O)cc1)NC(=O)[C@H](CO)NC(=O)[C@H](Cc1c[nH]c2ccccc12)NC(=O)[C@H](Cc1c[nH]cn1)NC(=O)[C@@H]1CCC(=O)N1)C(=O)N[C@@H](CCCNC(=N)N)C(=O)N1CCC[C@H]1C(=O)NCC(N)=O [D-Pal^6 -LHRH, pyroGlu-His-Trp-Ser-Tyr-D-3-Pal-Leu-Arg-Pro-GlyNH2] | 144 ± 27 ng/ml serum | 38 ± 6.3 | 2362 ± 293 | 1617 ± 143 | – | – | Serum LH ng/ml ± SEM ([1]; 5 ng/rat sc): 7 ± 1 ng/mL; LH ± SEM ng/ml serum ([1]; 50 ng sc, + 2 hrs): 108 ± 17 ng/ml serum; LH ± SEM ng/ml serum ([1]; 50 ng sc, +3 hrs): 20 ± 2.3 ng/ml serum; FSH ± SEM ng/ml serum ([1]; 50 ng sc, first column (+ 2 hrs as in upper part)): 1727 ± 222 ng/ml serum; FSH ± SEM ng/ml serum ([1]; 50 ng sc, second column (+3 hrs as in upper part)): 1312 ± 163 ng/ml serum; release of LH ([1]; dosage of 5 ng): significantly released LH; LH released relative to LHRH, corrected for the level of LH before addition of the peptides ([1]; dosage of 50 ng): ~50 times; potency compared with LHRH [2]: significantly more potent than LHRH itself; activity for the release of FSH (D-Pal^6 vs D-Qal^6, words) ([3]; at 0.1 ng, Table IV): same essential equivalents; activity for the release of LH (D-Pal^6 vs D-Qal^6, words) ([3]; at 0.1 ng, Table IV): essentially equivalent in activity; potency compared with D-Trp^6 -LHRH, inferred via D-Qal^6 -LHRH ([3]; inference from Table IV and comparable assays): essentially equipotent |
| CC(C)C[C@H](NC(=O)[C@@H](Cc1c[nH]c2ccccc12)NC(=O)[C@H](Cc1ccc(O)cc1)NC(=O)[C@H](CO)NC(=O)[C@H](Cc1c[nH]c2ccccc12)NC(=O)[C@H](Cc1c[nH]cn1)NC(=O)[C@@H]1CCC(=O)N1)C(=O)N[C@@H](CCCNC(=N)N)C(=O)N1CCC[C@H]1C(=O)NCC(N)=O [D-Trp^6 -LHRH, pyroGluHis-Trp-Ser-Tyr-D-Trp-Leu-Arg-Pro-Gly-NH2] | 230 ± 41 ng/ml serum | 117 ± 9 | 2332 ± 388 | 2065 ± 151 | 51 ± 10 | 259 ± 34 | effect on Leydig cell function and serum steroid levels [4]: suppression of Leydig cell function and decreases in serum levels of testosterone, dihydrotestosterone and estradiol; LH ng/ml Serum ± SEM ([1]; 10 mg/rat sc, ± 60 min): 31 ± 6 ng/mL; clinical effect in patients with more advanced prostatic disease [5]: pain from bone metastases was relieved; clinical effect in patients with urinary obstruction [5]: noticeable clinical improvement |
| CCNC(=O)[C@@H]1CCCN1C(=O)[C@H](CCCNC(=N)N)NC(=O)[C@H](CC(C)C)NC(=O)[C@@H](Cc1c[nH]c2ccccc12)NC(=O)[C@H](Cc1ccc(O)cc1)NC(=O)[C@H](CO)NC(=O)[C@H](Cc1c[nH]c2ccccc12)NC(=O)[C@H](Cc1c[nH]cn1)NC(=O)[C@@H]1CCC(=O)N1 [D-Trp^6 Pro^9 Net-LHRH, pyroGluHis-Trp-Ser-Tyr-D-Trp-Leu-Arg-Pro-EA**] | 184 ± 29 ng/ml serum | 103 ± 9 | 2260 ± 294 | 1763 ± 148 | 59 ± 10 | 228 ± 41 | – |
| CCNC(=O)[C@@H]1CCCN1C(=O)[C@H](CCCNC(=N)N)NC(=O)[C@H](CC(C)C)NC(=O)[C@@H](Cc1cccnc1)NC(=O)[C@H](Cc1ccc(O)cc1)NC(=O)[C@H](CO)NC(=O)[C@H](Cc1c[nH]c2ccccc12)NC(=O)[C@H](Cc1c[nH]cn1)NC(=O)[C@@H]1CCC(=O)N1 [Peptide 21436, pryoGlu-His-Trp-Ser-Tyr-D-3-Pal-Leu-Arg-Pro-NHC2 H5] | 237 ± 52 ng/ml serum | 106 ± 13 | 2415 ± 361 | 2205 ± 298 | – | – | – |
| LHRH: leutinizing hormone releasing hormone, the peptide hormone which exists naturally in the hypothalamus | .18 ± 0.07 ng/ml serum | 0.66 ± 0.46 | 337 ± 20 | 487 ± 72 | 49 ± 10 | 5.5 ± 0.9 | Serum FFSH ng/ml ± SEM ([1]; 15 ng/rat sc): 475 ± 43 ng/mL; Serum LH ng/ml ± SEM ([1]; 15 ng/rat sc): 1.3 ± 0.2 ng/mL; Serum FFSH ng/ml ± SEM ([1]; 50 ng/rat sc): 572 ± 68 ng/mL; Serum LH ng/ml ± SEM ([1]; 50 ng/rat sc): 3.2 ± 0.3 ng/mL; Serum FFSH ng/ml ± SEM ([1]; 150 ng/rat sc): 839 ± 73 ng/mL; Serum LH ng/ml ± SEM ([1]; 150 ng/rat sc): 12 ± 3 ng/mL; release of LH ([1]; at 15 ng): inactive |
